Assay: solvent given as SMILES

CC(C)(C)c1ccc(-c2nc3ccccc3nc2-c2cc(-c3nc4ccccc4nc3-c3ccc(C(C)(C)C)cc3)cc(-n3c4ccccc4c4ccccc43)c2)cc1
emission maximum (in Cc1ccccc1): 437 nm

Nc1nc(/C=C/c2ccc(N(c3ccccc3)c3ccccc3)cc2)cc(/C=C/c2ccc(N(c3ccccc3)c3ccccc3)cc2)n1
emission maximum (in Cc1ccccc1): 467 nm | emission maximum (in ClC(Cl)Cl): 526 nm

O=S1(=O)c2ccccc2-c2cc(-n3c4ccccc4c4cc(-c5ccc6c(c5)c5ccccc5n6-c5ccccc5)ccc43)ccc21
emission maximum (in O=P(c1ccccc1)(c1ccccc1)c1ccccc1Oc1ccccc1P(=O)(c1ccccc1)c1ccccc1): 462.73 nm

CN(C)c1cc(-c2ccc(C#Cc3ccncc3)cc2)cc2ccccc12
emission maximum (in CC#N): 417.83 nm | emission maximum (in CCO): 411.74 nm | emission maximum (in ClCCl): 536 nm

c1ccc2c(c1)OB1Oc3ccccc3-c3c1c-2c1c2c3-c3ccccc3OB2Oc2ccccc2-1
emission maximum (in ClCCl): 430 nm

F[B-]1(F)n2cccc2C(c2ccc(-c3c4ccccc4c(-c4ccccc4)c4ccccc34)cc2)=C2C=CC=[N+]21
emission maximum (in CC#N): 516 nm | emission maximum (in CCCCCC): 517 nm | emission maximum (in CCO): 516 nm | emission maximum (in CN(C)C=O): 520 nm | emission maximum (in Cc1ccccc1): 524 nm | emission maximum (in ClCCl): 518 nm

CC1(C)c2ccccc2N(c2cc3c4ccccc4n4c5ccccc5c(c2)c34)c2ccccc21
emission maximum (in C1CCCCC1): 416.92 nm | emission maximum (in C1CCOC1): 470.91 nm | emission maximum (in Cc1ccccc1): 439 nm

Cc1cc(C)n2c1C=C1C(=O)N(C)C(c3ccc([N+](=O)[O-])cc3)=[N+]1[B-]2(F)F
emission maximum (in CCCCCC): 587 nm

CC(=O)c1ccc(-c2ccc3c(c2)C(=O)c2cc(-c4ccc(C(C)=O)cc4)ccc2-3)cc1
emission maximum (in C1CCOC1): 375 nm

C(=C\c1ccncn1)/c1ccc(N(c2ccccc2)c2ccccc2)cc1
emission maximum (in C1CCOC1): 496 nm | emission maximum (in CC#N): 545 nm | emission maximum (in CCCCCCC): 443 nm | emission maximum (in CS(C)=O): 550 nm | emission maximum (in ClCCl): 526 nm

COc1ccc2c3c(c4ccc(OC)cc4c2c1)C(C)(C)c1ccc2ccccc2c1-3
emission maximum (in C1CCCCC1): 396 nm

CC1(C)c2cccc(-c3nc(-c4ccccc4)nc(-c4ccccc4)n3)c2Oc2c(-n3c4ccccc4c4ccccc43)cccc21
emission maximum (in C1CCCCC1): 395 nm | emission maximum (in CC(C)=O): 469 nm | emission maximum (in Cc1ccccc1): 419 nm | emission maximum (in ClC(Cl)Cl): 454 nm

CN(C)c1cc(-c2ccccc2)cc2ccccc12
emission maximum (in ClCCl): 422 nm

FC(F)(F)c1ccc(/C2=C3N=C(C(c4ccccc4)=C/3c3ccccc3)/C(c3ccc(C(F)(F)F)cc3)=c3\[nH]/c(c(-c4ccccc4)c3-c3ccccc3)=C(/c3ccc(C(F)(F)F)cc3)C3=N/C(=C(/c4ccc(C(F)(F)F)cc4)c4[nH]c2c(-c2ccccc2)c4-c2ccccc2)C(c2ccccc2)=C3c2ccccc2)cc1
emission maximum (in ClCCl): 730 nm

CCCCCCCCC1(CCCCCCCC)c2cc3c(cc2-c2sc(-c4ccc(/C=C5\SC(N6CCCCC6)=NC5=O)c5nsnc45)cc21)C(CCCCCCCC)(CCCCCCCC)c1cc(-c2ccc(/C=C4\SC(N5CCCCC5)=NC4=O)c4nsnc24)sc1-3
emission maximum (in ClC(Cl)Cl): 675 nm

O=C1OC(=O)C2=C1S[C@]13C2=C[C@H](c2ccccc21)c1ccccc13
emission maximum (in ClCCl): 514 nm

COc1ccc(-c2oc3cccc4c5c(-c6ccc(OC)cc6)c(=N)oc6cccc(c2c34)c65)cc1
emission maximum (in ClC(Cl)Cl): 505 nm

Fc1c(-n2c3ccccc3c3ccccc32)c(F)c(-n2c3ccccc3c3ccccc32)c(-c2nnc(-c3ccccc3)o2)c1-n1c2ccccc2c2ccccc21
emission maximum (in Cc1ccccc1): 490 nm

CC(C)(C)c1ccc2oc3nc4oc5ccc(-n6c7ccccc7c7ccccc76)cc5c4cc3c2c1
emission maximum (in ClC(Cl)Cl): 446 nm

COc1ccc(-c2cnc(-c3ccccc3)o2)cc1OC
emission maximum (in ClCCl): 400 nm

CCCCCCCCC1(CCCCCCCC)c2cc(-c3ccc([Si](C)(C)C)cc3)ccc2-c2ccc(-c3ccc([Si](C)(C)C)cc3)cc21
emission maximum (in ClC(Cl)Cl): 368 nm

COc1cc(OC)c2c(c1)C(=O)c1ccc(OC)cc1-2
emission maximum (in C1CCCCC1): 537 nm | emission maximum (in CC#N): 578 nm

C[Si]1(C)O[Si](C)(C)c2cc3cc4c(cc3cc21)C(=O)c1cc2cc3c(cc2cc1C4=O)[Si](C)(C)O[Si]3(C)C
emission maximum (in ClC(Cl)Cl): 437 nm

CC[n+]1nc2ccc(N(C)C)cc2c2cc(C)ccc21
emission maximum (in O): 542 nm

Cc1cccc2c1nc1c(=O)n(C)c(=O)nc-1n2C
emission maximum (in CC#N): 493 nm

CN(C)c1ccc(-c2cc3c(s2)c(C(=O)c2ccccc2)cc(=O)n3Cc2ccccc2)cc1
emission maximum (in CC#N): 521 nm | emission maximum (in ClCCl): 678 nm

O=c1[nH]cc(F)c(=O)[nH]1
emission maximum (in CC#N): 322 nm

COc1ccc(C2=C3C(/C=C/c4cc(OC)c(OC)c(OC)c4)=C(C=O)C(C)=[N+]3[B-](F)(F)n3c(C)c(C=O)c(C=Cc4cc(OC)c(OC)c(OC)c4)c32)cc1
emission maximum (in ClCCl): 673 nm

C1=CC2=Nc3cccc[n+]3CN2C=C1
emission maximum (in CO): 448 nm

COc1ccc(C2=Cc3c4ccccc4cc[n+]3[B-](F)(F)O2)cc1
emission maximum (in ClC(Cl)Cl): 478.2 nm

Clc1ncc(-c2c3ccccc3c(-c3cnc(Cl)nc3)c3ccccc23)cn1
emission maximum (in CCO): 428 nm | emission maximum (in ClCCl): 421 nm

COc1ccc(C2=[N+]3C(=Nc4c(-c5cc(OC)c(OC)c(OC)c5)cc(-c5ccc(OC)cc5)n4[B-]3(F)F)C(c3cc(OC)c(OC)c(OC)c3)=C2)cc1
emission maximum (in Cc1ccccc1): 724 nm

CCOC(=O)c1c(C(=O)OC)c(-c2cc3cc(OC)ccc3oc2=O)nn1-c1ccccc1
emission maximum (in ClCCl): 451 nm

Cc1cc(C)c(B(c2c(C)cc(C)cc2C)N2c3ccccc3C(c3ccccc3)(c3ccccc3)c3ccccc32)c(C)c1
emission maximum (in C1CCCCC1): 522 nm | emission maximum (in Cc1ccccc1): 537 nm | emission maximum (in ClCCl): 558 nm

CC1(C)C2=C3C=C4C5=[N+](CCC4OC3CCN2c2ccc(CC(=O)NCCCCCCO)cc21)c1ccc(S(=O)(=O)[O-])cc1C5(C)C (configuration not stated)
emission maximum (in O): 572 nm

— the Deep4Chem optical property database
